Results from the supplement of paper PMC10307832.

Experiments:
[1] = compound: Nc1nc2[nH]cc(CCc3ccc(C(=O)N[C@@H](CCC(=O)O)C(=O)O)cc3)c2c(=O)[nH]1 [Pemetrexed] + N=C(N)NC(=N)NCCc1ccccc1 [Phenformin] (partner 250 µM); experiment: relative viability (nuclei count vs DMSO), 5 days (fraction); higher = more cells survive
In short: (§1)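 Dosing by pin tool came one day after lung cancer cell lines were seeded in 1536-well plates, using either one drug or a fixed anchor-drug dose plus five library-drug doses (not always all listed) in √10 steps. After 5 days, nuclei were counted on 4× images. Relative viability is treated-well nuclei count divided by vehicle-well nuclei count, and values are medians of duplicate plates.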

[2] = compound: CC[C@H](Nc1ncnc2[nH]cnc12)c1nc2cccc(F)c2c(=O)n1-c1ccccc1 [Idelalisib] + CC(=O)c1c(C)c2cnc(Nc3ccc(N4CCNCC4)cn3)nc2n(C2CCCC2)c1=O [Palbociclib] (partner 0.5 µM); experiment: as above
In short: as §1

Cell Line	relative viability ([1]; first compound 0.002 µM)	relative viability ([1]; first compound 0.006325 µM)	relative viability ([1]; first compound 0.02 µM)	relative viability ([1]; first compound 0.06325 µM)	relative viability ([1]; first compound 0.2 µM)	relative viability ([2]; first compound 0.04 µM)	relative viability ([2]; first compound 0.1265 µM)	relative viability ([2]; first compound 0.4 µM)	relative viability ([2]; first compound 1.265 µM)	relative viability ([2]; first compound 4 µM)
BEN	0.288	0.283	0.255	0.272	0.275	0.532	0.438	0.452	0.509	0.413
NCI-H2347	0.203	0.369	0.484	0.412	0.387	0.48	0.453	0.445	0.42	0.286
LCLC-103H	0.316	0.333	0.364	0.351	0.3	0.515	0.421	0.472	0.472	0.451
NCI-H650	0.406	0.468	0.457	0.428	0.469	0.327	0.314	0.309	0.312	0.296
NCI-H1975	0.331	0.39	0.413	0.32	0.237	0.586	0.653	0.429	0.583	0.406
NCI-H2126	0.536	0.555	0.574	0.507	0.486	0.364	0.369	0.366	0.327	0.358
NCI-H2087	0.397	0.446	0.475	0.473	0.47	0.216	0.173	0.15	0.223	0.169
